Paper PMC9038204, “SNX27–Retromer directly binds ESCPE-1 to transfer cargo proteins during endosomal recycling” (PLoS Biology, 2022)
Blank lines part the entries; values can stand above or below the substance they belong to. Where no end group is shown, it is not given here.

Tests used:
[1] = biological target: T1, hSNX27FL K501D (Homo sapiens, UniProt Q96L92, K501D); assay: ITC, hSNX1 peptide 75-92 against hSNX27FL K501D; format: binding; conditions: 25°C, 600 μM SNX1_75-92 into 20 μM hSNX27FL K501D
T1 construct: FL, full-length; ITC, isothermal titration calorimetry; His-tag followed by a TEV cleavage site (N); made in house; host or cells: E. coli BL21 (DE3)
Text: (§1) For bacterial expression, full-length mouse SNX1 with an amino-terminal His-tag (mSNX1FL hereafter) was cloned into the pMW172Kan vector [75], and the truncated mSNX1 construct containing residues 1 to 139 was cloned into pGEX4T-2 vector for expression as a thrombin-cleavable amino-terminal GST fusion protein. DNA encoding full-length mouse SNX27 (mSNX27FL hereafter) was inserted into the pMCSG7 vector [76] by the ligation-independent cloning (LIC) approach. Human SNX27 constructs, hSNX27FL, hSNX27FERM, and hSNX27FL single-site mutants R437D, K495D, K496D, R498D, and K501D were cloned into the pET-28a vector by GenScript and codon optimized for bacterial protein expression. An additional TEV cleavage site was inserted between the amino-terminal His-tag and hSNX27 coding sequences.
(§2) All microcalorimetry experiments were conducted at 25°C using a PEAQ ITC (Malvern, UK) in 50 mM HEPES (pH 7.5), 200 mM NaCl, 5% glycerol, and 1 mM β-ME (ITC buffer). […]
(§3) The ITC experiments were conducted with 1 injection of 0.4 μL followed by a series of 12 injections of 3.2 μL each with 180-second intervals and a stirring speed of 850 rpm. […] Data were analyzed with Malvern software package by fitting and normalized data to a single-site binding model, yielding the thermodynamic parameters Kd, ΔH, ΔG, and −TΔS for all binding experiments. […]

[2] = biological target: T2, hSNX27FL R498D (Homo sapiens, UniProt Q96L92, R498D); assay: ITC, hSNX1 peptide 75-92 against hSNX27FL R498D; format: binding; conditions: 25°C, 600 μM SNX1_75-92 into 20 μM hSNX27FL R498D
T2 construct: FL, full-length; ITC, isothermal titration calorimetry; His-tag followed by a TEV cleavage site (N); made in house; host or cells: E. coli BL21 (DE3)
Text: as §1, §2, §3

[3] = biological target: T3, hSNX27FL K495D (Homo sapiens, UniProt Q96L92, K495D); assay: ITC, hSNX1 peptide 75-92 against hSNX27FL K495D; format: binding; conditions: 25°C, 600 μM SNX1_75-92 into 20 μM hSNX27FL K495D
T3 construct: FL, full-length; ITC, isothermal titration calorimetry; His-tag followed by a TEV cleavage site (N); made in house; host or cells: E. coli BL21 (DE3)
Text: as §1, §2, §3

[4] = biological target: T4, mSNX27FL preincubated with competing peptide (Mus musculus, UniProt Q3UHD6); assay: Competitive ITC of hSNX2 16-33 and hSNX1 75-92 with mSNX27FL; format: binding; conditions: 25°C
T4 construct: DNA encoding full-length mouse SNX27 (mSNX27FL hereafter) was inserted into the pMCSG7 vector; made in house; host or cells: Escherichia coli BL21 CodonPlus (DE3)
Procedure: All microcalorimetry experiments were conducted at 25°C using a PEAQ ITC (Malvern, UK) in 50 mM HEPES (pH 7.5), 200 mM NaCl, 5% glycerol, and 1 mM β-ME (ITC buffer). All proteins were purified by SEC using the same buffer prior to ITC experiments to avoid buffer mismatches. To measure binding of SNX27 to SNX1 proteins, 800 μM of hSNX27FERM was titrated into 20 μM of GST-mSNX1_1-139 or His-SNX1FL. For the binding of SNX1 and SNX2 peptides to SNX27, peptides were diluted 10-fold to 800 μM in ITC buffer peptides and titrated into 20 μM SNX27FL proteins containing the same 1:10 ratio of peptide buffer (100 mM Tris-HCl, pH 10.6). […] For ITC experiment using SNX1_75-92 against hSNX27 wild-type and single-site mutants, 600 μM SNX1_75-92 peptide was titrated into 20 μM hSNX27 proteins.
The ITC experiments were conducted with 1 injection of 0.4 μL followed by a series of 12 injections of 3.2 μL each with 180-second intervals and a stirring speed of 850 rpm. The heat exchange of interactions was obtained through integrating the observed peaks and background correction by subtracting the heats of dilution. Data were analyzed with Malvern software package by fitting and normalized data to a single-site binding model, yielding the thermodynamic parameters Kd, ΔH, ΔG, and −TΔS for all binding experiments. […]

[5] = tested on: HeLa cells, surface ITGA5; assay: Surface biotinylation, cell surface level of ITGA5; format: cell-based
Procedure: (§4) For western blotting, cells were lysed in PBS with 1% (v/v) Triton X-100 and protease inhibitor cocktail. The protein concentration was determined with a BCA assay kit (Thermo Fisher Scientific, USA), and equal amounts were resolved on NuPAGE 4% to 12% precast gels (Invitrogen, USA). Blotting was performed onto polyvinylidene fluoride membranes (Immobilon-FL; EMD Millipore, USA) followed by detection using the Odyssey infrared scanning system (LI-COR Biosciences, USA). For GFP-based immunoprecipitations, HEK-293T cells were lysed 48 hours after transfection in immunoprecipitation buffer (50 mM Tris-HCl, 0.5% (v/v) NP-40, and Roche protease inhibitor cocktail) and subjected to GFP trap (ChromoTek, Germany). Immunoblotting was performed using standard procedures. Detection was performed on an Odyssey infrared scanning system (LI-COR Biosciences) using fluorescently labeled secondary antibodies. In using the Odyssey, we routinely performed western blot analysis where a single blot is simultaneously probed with antibodies against 2 proteins of interest (distinct antibody species) followed by visualization with the corresponding secondary antibodies conjugated to distinct spectral dyes.
(§5) For surface biotinylation experiments, fresh Sulfo-NHS-SS Biotin (Thermo Fisher Scientific, #21217) was dissolved in ice-cold PBS at pH 7.8 at a final concentration of 0.2 mg/ml. Cells were washed twice in ice-cold PBS and placed on ice to slow down the endocytic pathway. Next, cells were incubated with the biotinylation reagent for 30 minutes at 4°C followed by incubation in TBS for 10 minutes to quench the unbound biotin. The cells were then lysed in lysis buffer and subjected to Streptavidin beads-based affinity isolation (GE Healthcare, USA).

[6] = tested on: HeLa cells, surface GLUT1; assay: Surface biotinylation, cell surface level of GLUT1; format: cell-based
Procedure: as §4, §5

[7] = relative to HeLa = 100, mean of n = 3, Fig. 6D
[8] = relative to HeLa = 100, replicate n1, Fig. 6D
[9] = relative to HeLa = 100, replicate n2, Fig. 6D
[10] = relative to HeLa = 100, replicate n3, Fig. 6D

Kd [1]: no detectable binding | Kd ([1]; listed as hSNX175-92): No binding detected | Kd [2]: no detectable binding | Kd ([2]; listed as hSNX175-92): No binding detected | Kd [3]: no detectable binding | Kd ([3]; listed as hSNX175-92): No binding detected
Substance: NGIHEEQDQEPQDLFADA [SNX1_75-92]

Kd ([4]; hSNX2 16-33 titrated into mSNX27FL preincubated with 2-fold molar excess hSNX1 75-92): binding is blocked | Kd ([4]; hSNX2 16-33 titrated into mSNX27FL preincubated with 2-fold molar excess hSNX1 75-92, listed as hSNX216-33): No binding detected
Substance: TDFEDLEDGEDLFTSTVS [SNX2_16-33]

Substance: +GFP-SNX1
cell surface ITGa5, Mean 2 [5, 7]: 94.91 | cell surface ITGa5 [5, 8]: 92.6175 | cell surface ITGa5 [5, 9]: 101.027 | cell surface ITGa5 [5, 10]: 91.0806 | cell surface GLUT1, Mean 2 [6, 7]: 89.92 | cell surface GLUT1 [6, 8]: 81.0353 | cell surface GLUT1 [6, 9]: 95.6847 | cell surface GLUT1 [6, 10]: 93.0328
